The source of these data is paper PMC12562681, “Targeting a Tau Kinase Cdk5, Cyclin-Dependent Kinase: A Blood-Based Diagnostic Marker and Therapeutic Earmark for Alzheimer’s Disease” (Biomolecules, 2025).

Like-named read-outs stand apart in the source and are kept apart here. Peptide text beside a SMILES is read from it.

Data set [1] concerns Cdk5. The data set is described as follows: Cdk5 expression by Western blot in Aβ25–35-treated SH-SY5Y cells. The format is cell-based. To be noted: aggregated Aβ25–35, SH-SY5Y. As for the experimental part:
(§1) The concentration of total protein in cell lysate was measured using the bicinchoninic acid (BCA) assay. Samples were prepared using the 6× protein loading dye and incubated at 95 °C for 15 min. Equal concentrations of cell lysate (50 µg/lane) were fractionated by 10% SDS-PAGE and transferred to PVDF membrane. The membrane was blocked with 5% NFM for 2 h and then probed with their respective primary antibodies: Cdk5 (1:400) and Mcl1 (1:1000), mouse IgG anti-β-amyloid (1:200) (Sc28365), mouse IgG anti-Tau (Tau-46) (1:200) (Santa Cruz Biotechnology Inc., Dallas, TX, USA, Sc32274), rabbit IgG anti-phospho-Tau (Thr181) (1:350) (Cell Signaling Technology, Inc., Danvers, MA, USA, DAF4G), and rabbit antibody IgG anti-β-actin (1:1000) (Cell Signaling Technology, Inc., Danvers, MA, USA). The membranes were incubated with the secondary anti-rabbit and anti-mouse (cat. no. Sc2004, Sc2005) HRP-conjugated antibody (1:4000) at room temperature for 1 h.
Background: In western blotting, separated proteins are transferred to a membrane and probed.

The subject of another data set is Cdk5 mRNA. As to the kind of experiment: Cdk5 mRNA by RT-PCR in Aβ25–35-treated SH-SY5Y cells. To be noted: aggregated Aβ25–35 alone; δ-δ CT, GAPDH; triplicate. Type of data set: cell-based. An excerpt: [36]; Mcl1 forward primer-[NT] and reverse primer-[…] forward primer-[NT] and reverse primer-[NT].
The next data set concerns Aβ-amyloid. As to the kind of experiment: Aβ-amyloid expression by Western blot in Aβ25–35-treated SH-SY5Y cells. Type of data set: cell-based. To be noted: aggregated Aβ25–35 alone. The method, then: as §1
The test system of a further data set is Tau. The data set is described as follows: Tau expression by Western blot in Aβ25–35-treated SH-SY5Y cells. The format is cell-based. Conditions: aggregated Aβ25–35 alone. The method, then:
as §1

The test system of a further data set is phospho-Tau (Thr181). As to the kind of experiment: p-Tau expression by Western blot in Aβ25–35-treated SH-SY5Y cells. The format is cell-based. Conditions: aggregated Aβ25–35 alone. The method, then: as §1
Data set [2] deals with T1, Cdk5 (Homo sapiens, UniProt Q00535).
T1 construct: host or cells: E. coli BL21
As to the kind of experiment: Binding study of peptide by SPR (Ni-NTA chip, immobilized recombinant Cdk5). To be noted: recombinant Cdk5 on Ni-NTA sensor chip, peptide 0.4, 0.6 and 1 µM, BIA evaluation 3.0, read-out: dissociation constant (KD). The method, then: Different concentrations of purified recombinant human Cdk5 and Mcl1 proteins were passed over the respective flow cells, and corresponding response units (RU) were noted. The standard curve was prepared by plotting different concentrations of pure proteins versus the corresponding RU (Figure S1). Serum samples were diluted (1:79) with HBS-EP buffer and passed over the respective flow cell. The RU for each sample was noted, and the concentration of Cdk5 and Mcl1 in the serum sample was derived from their respective standard curves.
The recombinant Cdk5 protein was immobilized on the Ni-NTA sensor chip by passing NiCl2 solution and the protein. Different concentrations of peptide YCWS (0.4 µM, 0.6 µM, and 1 µM) were passed over it, and changes in RU were noted. The association constant (KA) and dissociation constant (KD) values were calculated using the BIA evaluation 3.0 software.

In the next data set the test system is HEK-293 cells. The data set is described as follows: Cell cytotoxicity assay in HEK-293 cells (MTT). Type of data set: cell-based. To be noted: 24 h, 48 h and 72 h, up to 50 µM, triplicate. An excerpt:
(§2) SH-SY5Y and HEK 293 cells were purchased from NCCS, Pune, India, and were maintained in Ham’s F12 (cat. no. 21700075) and Dulbecco’s Modified Eagle Medium (DMEM, cat. no. 12800017) nutrient media (Gibco, Waltham, MA, USA), respectively, supplemented with 10% (v/v) Fetal Bovine Serum (FBS, cat. no. 10270106) and 1% antibiotic–antimycotic solution (cat. no. CC4003010L, CELL clone, New Delhi, India). The SH-SY5Y cells used in the experiment were of passage number 42–46. Cells were maintained as a monolayer culture at 37 °C with 5% CO2 and 95% relative humidity. Potential contamination in all cells was assessed through STR profiling (DNA Forensic Laboratory Private Limited, New Delhi, India).
The peptide’s effect was initially assessed using the normal HEK 293 cell line, and the cell viability was determined by the 3-(4,5-dimethylthiazol-2-yl)-2,5-diphenyltetrazolium bromide (MTT) (cat. no. T0793) reduction assay. Cells were seeded in 96-well plates at a density of 5 × 10^3 cells per 100 μL per well. Cells were cultured for 24 h and then treated with different concentrations of peptide, i.e., 10 µM, 20 µM, and 50 µM, for different time intervals (24 h, 48 h, and 72 h). At the end of treatment, 10 μL MTT (5 mg/mL) was added in each well and incubated for 4 h at 37 °C. […] The absorbance value at 572 nm was measured using a microplate reader. […]

A further data set concerns SH-SY5Y cells. Type of data set: cell-based. To be noted: triplicate.
Source text: as §2
Aggregated Aβ25–35 was employed to induce neurotoxicity in SH-SY5Y cells due to its ability to replicate the physiological and biological characteristics of Aβ-amyloid, known to mediate neurotoxic effects and contribute to neuronal cell damage. The effect of peptide on neurotoxicity caused by aggregated Aβ25–35 was assessed via MTT assay. Cells were seeded in 96-well plates at a density of 1 × 10^4 cells per 100 μL per well. Cells were cultured for 24 h and then treated with 20 µM retinoic acid for differentiation. The culture medium was routinely replaced every alternate day for a period of seven days. A stock solution of 20 mM Aβ25–35 was prepared by dissolving 2.12 mg of synthesized Aβ25–35 in 100 µL of 1× PBS and allowed to aggregate at 37 °C for 7 days. Cells were treated with 20 µM aggregated Aβ25–35, along with different concentrations of the peptide YCWS (2 µM, 5 µM, 10 µM, 15 µM, and 20 µM) for 24 h, 48 h, and 72 h. After completion of the treatment duration, cell viability was determined using the MTT assay as described above.

The test system of a further data set is SHSY-5Y cells. As to the kind of experiment: Cytotoxicity of peptide in SHSY-5Y cells. The format is cell-based. Conditions: discussion statement, concentration and time not given.

T1 sequence (Q00535 whole entry): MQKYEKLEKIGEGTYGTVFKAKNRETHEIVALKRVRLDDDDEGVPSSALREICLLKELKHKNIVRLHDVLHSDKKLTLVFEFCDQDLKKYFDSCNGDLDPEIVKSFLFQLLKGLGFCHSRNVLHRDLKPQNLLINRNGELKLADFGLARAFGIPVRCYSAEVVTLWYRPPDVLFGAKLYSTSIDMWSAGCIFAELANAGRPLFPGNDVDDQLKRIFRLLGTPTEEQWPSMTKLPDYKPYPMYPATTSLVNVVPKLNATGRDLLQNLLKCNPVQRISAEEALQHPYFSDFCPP

On to `CC[C@H](C)[C@H](NC(=O)[C@H](C)NC(=O)CNC(=O)[C@H](CCCCN)NC(=O)[C@H](CC(N)=O)NC(=O)[C@H](CO)NC(=O)CN)C(=O)N[C@H](C(=O)NCC(=O)N[C@@H](CC(C)C)C(=O)N[C@@H](CCSC)C(=O)O)[C@@H](C)CC` [Aβ25–35] (H-GSNKGAIIGLM-OH; N-terminus and C-terminus assumed), for which, in the data set on Cdk5 [1], the Cdk5 protein expression entry was “increased the expression of Cdk5”. Also, in the data set on Cdk5 mRNA, the “Cdk5 mRNA expression, fold vs control group” value turned out to be 1.85 fold. Also, the Aβ-amyloid expression result with Aβ-amyloid is “increased”. Besides, the tau expression entry with Tau was “increased”. The p-Tau expression entry in the data set on phospho-Tau (Thr181) is on record as “increased”.
`N[C@@H](Cc1ccc(O)cc1)C(=O)N[C@@H](CS)C(=O)N[C@@H](Cc1c[nH]c2ccccc12)C(=O)N[C@@H](CO)C(=O)O` [YCWS] (H-YCWS-OH): on Cdk5 [2], the Kd stood at 3.94 nM. Also, in the data set with HEK-293 cells, the “cytotoxicity, HEK-293 cells” value is on record as “nontoxic”. Moreover, the “cell viability, rescue” value in the data set with SH-SY5Y cells (YCWS 2 µM + 20 µM aggregated Aβ25–35, MTT, time of value not stated (24, 48, 72 h tested)) was determined as 87.28%; in the data set with SH-SY5Y cells (YCWS 5 µM + 20 µM aggregated Aβ25–35, MTT, time of value not stated (24, 48, 72 h tested)) it was 91.47%; in the data set on SH-SY5Y cells (YCWS 10 µM + 20 µM aggregated Aβ25–35, MTT, time of value not stated (24, 48, 72 h tested)) it was 92.20%; in the data set on SH-SY5Y cells (YCWS 15 µM + 20 µM aggregated Aβ25–35, MTT, time of value not stated (24, 48, 72 h tested)) it was 98.27%; in the data set with SH-SY5Y cells (YCWS 20 µM ("up to") + 20 µM aggregated Aβ25–35, MTT, p < 0.001 vs Aβ (Mann–Whitney), time of value not stated) it was 98.55%. Besides, the “cytotoxicity, SHSY-5Y cells” value in the data set with SHSY-5Y cells is “non-toxic”.

In general, Kd refers to the constant that tells how readily two partners part at equilibrium.
